Assay results: patent US20250136558A1, “PYRAZINE COMPOUNDS AS IRREVERSIBLE INHIBITORS OF FLT3” (BIOMEA FUSION, INC., priority 2021, published 2025)

Legend:
Format in all cases: cell-based
[1] = test system: MV-4-11; assay: Proliferation inhibition (CellTiter-Glo) in MV-4-11 cells; conditions: Homo sapiens, MV4-11, 96 h, MV-4-11 AML cells, homozygous FLT3-ITD, IC50 (4 days)
Text: (§1) The Proliferation Inhibitory Effect was Investigated in Human AML Cell Lines MOLM-13 (AddexBio: C0003003) [REF: Pubmed: 9305600] and MV-4-11 (ATCC: CRL-9591) [REF PMID: 3496132], and CML cell line […] (ATCC: CRL-3343) [REF PMID: 163658]. Molm-13 is heterozygous for FLT3-ITD mutation, while MV4-11 is homozygous for FLT3-ITD [PMID: 12529668]. […] Cells were maintained in RPMI-1640 medium (ThermoFisher catalog no. 61870036) supplemented with 10% of Heat Inactivated FBS (ThermoFisher catalog no.A31605) and 1% Pen-Strep (Thermofisher catalog no. 10378016) and cultured at 37° C. in a humidified incubator with 5% CO2. Cell lines were […], and the cells were maintained in a range 70%-80% confluency.
(§2) ATP is present in all metabolically active cells and is considered as a marker for cell viability and proliferation. Metabolic cell activity was determined using the CellTiter-Glo kit (Promega catalog no. G7572), an ATP monitoring system based on the production of luminescence by the reaction of ATP with added UltraGlo® recombinant luciferase (Kawano et al., 2016, PLOS One, 8; 11(7):e0158888), according to the supplier's experimental recommendations. The assay was based on a 96 well plate format.
(§3) Test compounds were dissolved at 10 mM in DMSO (Sigma catalog no. D8418; purity 299.9%) and stored at −20° C. Eight concentrations of test compound were assessed in duplicate in an individual test occasion in parallel in the selected cell lines. Gilteratinib and FF-10101 were used as reference compounds and tested in duplicate at eight concentrations. 100% of proliferation is represented by the untreated cells (0.2% DMSO).
(§4) On the day of the experiment (TO), cells were quantified with the cell viability analyser NucleoCounter (Chemometec NC-200) and diluted with fresh medium to obtain the cell density of about 10,000 cells per 200 μL medium. 200 μL of cell suspension were added into wells in the 96 well plate.
(§5) After 2 hours from seeding cells, compounds were added using a D300e compound dispenser (Life Sciences Tecan D300) at desired concentrations with shaking between each compound dispensed. Cell plates containing 200 μL/well suspension were incubated at 37° C. in a humidified incubator with […].
(§6) […] Contents were mixed for 5 min on an orbital shaker to induce cell lysis, and then incubated at room temperature for an additional 10 min in the dark to stabilize the luminescent signal. Luminescence was read by using a GloMax GM300 plate reader (Promega) using the luminescence for 96 well plate standard protocol.
(§7) Results were analysed by GraphPad (Prism) and IC50 values were calculated by non-linear regression using four parameter-logistic equation.

[2] = test system: MOLM-13; assay: Proliferation inhibition (CellTiter-Glo) in MOLM-13 cells; conditions: Homo sapiens, 96 h, MOLM-13 AML cells, heterozygous FLT3-ITD, IC50 (4 days)
Text: as §1, §2, §3, §4, §5, §6, §7

[3] = test system: K-562; assay: Proliferation inhibition (CellTiter-Glo) in K-562 cells; conditions: Homo sapiens, K562, 96 h, K-562 CML cells, no FLT3 mutations, IC50 (4 days)
Text: as §1, §2, §3, §4, §5, §6, §7

SMILES | IC50 [1] [nM] | IC50 [2] [nM] | IC50 [3] [nM]
C=CC(=O)NCCCCOc1cccc(Nc2nc(NC3CCOCC3)c(CC)nc2C(N)=O)c1 [Compound 1, 3-((3-(4-Acrylamidobutoxy)phenyl)amino)-6-ethyl-5-((tetrahydro-2H-pyran-4-yl)amino)pyrazine-2-carboxamide] | 10 to 100 | 100 to 500 | > 500
C=CS(=O)(=O)NCCCCOc1cccc(Nc2nc(NC3CCOCC3)c(CC)nc2C(N)=O)c1 [Compound 2, 6-Ethyl-5-((tetrahydro-2H-pyran-4-yl)amino)-3-((3-(4-(vinylsulfonamido)butoxy)phenyl)amino)pyrazine-2-carboxamide] | 100 to 500 | 100 to 500 | > 500
C=CC(=O)NCCCOc1cccc(Nc2nc(NC3CCOCC3)c(CC)nc2C(N)=O)c1 [Compound 3, 3-((3-(3-Acrylamidopropoxy)phenyl)amino)-6-ethyl-5-((tetrahydro-2H-pyran-4-yl)amino)pyrazine-2-carboxamide] | 100 to 500 | 100 to 500 | > 500
C=CS(=O)(=O)NCCCOc1cccc(Nc2nc(NC3CCOCC3)c(CC)nc2C(N)=O)c1 [Compound 4, 6-Ethyl-5-((tetrahydro-2H-pyran-4-yl)amino)-3-((3-(3-(vinylsulfonamido)propoxy)phenyl)-amino)pyrazine-2-carboxamide] | 100 to 500 | 100 to 500 | > 500
C#CC(=O)NCCCCOc1cccc(Nc2nc(NC3CCOCC3)c(CC)nc2C(N)=O)c1 [Compound 5, 6-Ethyl-3-((3-(4-propiolamidobutoxy)phenyl)amino)-5-((tetrahydro-2H-pyran-4-yl)amino)pyrazine-2-carboxamide] | 10 to 100 | 10 to 100 | > 500
CC#CC(=O)NCCCCOc1cccc(Nc2nc(NC3CCOCC3)c(CC)nc2C(N)=O)c1 [Compound 6, 3-((3-(4-(But-2-ynamido)butoxy)phenyl)amino)-6-ethyl-5-((tetrahydro-2H-pyran-4-yl)amino)pyrazine-2-carboxamide] | 100 to 500 | 100 to 500 | > 500
C#CC(=O)NCCCOc1cccc(Nc2nc(NC3CCOCC3)c(CC)nc2C(N)=O)c1 [Compound 7, 6-Ethyl-3-((3-(3-propiolamidopropoxy)phenyl)amino)-5-((tetrahydro-2H-pyran-4-yl)amino)pyrazine-2-carboxamide] | 10 to 100 | 1 to 10 | 100 to 500
CC#CC(=O)NCCCOc1cccc(Nc2nc(NC3CCOCC3)c(CC)nc2C(N)=O)c1 [Compound 8, 3-((3-(3-(But-2-ynamido)propoxy)phenyl)amino)-6-ethyl-5-((tetrahydro-2H-pyran-4-yl)amino)pyrazine-2-carboxamide] | > 500 | 100 to 500 | > 500
CC#CC(=O)NCCC#Cc1cccc(Nc2nc(NC3CCOCC3)c(CC)nc2C(N)=O)c1 [Compound 16, 3-((3-(4-(But-2-ynamido)but-1-yn-1-yl)phenyl)amino)-6-ethyl-5-((tetrahydro-2H-pyran-4-yl)amino)pyrazine-2-carboxamide] | 100 to 500 | 100 to 500 | > 500
CCc1nc(C(N)=O)c(Nc2cncc(CCNC(=O)[C@H](C)N(C)C(=O)/C=C/CN(C)C)c2)nc1C1CC1 [Compound 306, (S,E)-5-cyclopropyl-3-((5-(2-(2-(4-(dimethylamino)-N-methylbut-2-enamido)propanamido)ethyl)pyridin-3-yl)amino)-6-ethylpyrazine-2-carboxamide] | – | – | > 500
CCc1nc(C(N)=O)c(Nc2cccc(CCNC(=O)[C@H](C)N(C)C(=O)/C=C/CNC)c2)nc1N(C)C(C)C [Compound 307, (S,E)-6-ethyl-5-(isopropyl(methyl)amino)-3-((3-(2-(2-(N-methyl-4-(methylamino)but-2-enamido)propanamido)ethyl)phenyl)amino)pyrazine-2-carboxamide] | – | – | > 500
Cc1cc(C(N)=O)c(Nc2cncc(CCNC(=O)[C@H](C)N(C)C(=O)/C=C/CN(C)C)c2)nc1C1CC1 [Compound 323, (S,E)-6-cyclopropyl-2-((5-(2-(2-(4-(dimethylamino)-N-methylbut-2 enamido)propanamido)ethyl)pyridin-3-yl)amino)-5-methylnicotinamide] | – | – | > 500

Results, then the molecule that gave them:

IC50 [1] [nM] | IC50 [2] [nM] | IC50 [3] [nM] | SMILES
10 to 100 | 10 to 100 | > 500 | C=CC(=O)NCC#Cc1cccc(Nc2nc(NC3CCOCC3)c(CC)nc2C(N)=O)c1 [Compound 9, 3-((3-(3-Acrylamidoprop-1-yn-1-yl)phenyl)amino)-6-ethyl-5-((tetrahydro-2H-pyran-4-yl)amino)pyrazine-2-carboxamide]
100 to 500 | 100 to 500 | > 500 | C=CS(=O)(=O)NCC#Cc1cccc(Nc2nc(NC3CCOCC3)c(CC)nc2C(N)=O)c1 [Compound 10, 6-Ethyl-5-((tetrahydro-2H-pyran-4-yl)amino)-3-((3-(3-(vinylsulfonamido)prop-1-yn-1-yl)phenyl)amino)pyrazine-2-carboxamide]
10 to 100 | 10 to 100 | > 500 | C=CC(=O)NCCC#Cc1cccc(Nc2nc(NC3CCOCC3)c(CC)nc2C(N)=O)c1 [Compound 11, 3-((3-(4-Acrylamidobut-1-yn-1-yl)phenyl)amino)-6-ethyl-5-((tetrahydro-2H-pyran-4-yl)amino)pyrazine-2-carboxamide]
100 to 500 | > 500 | > 500 | C=CS(=O)(=O)NCCC#Cc1cccc(Nc2nc(NC3CCOCC3)c(CC)nc2C(N)=O)c1 [Compound 12, 6-ethyl-5-((Tetrahydro-2H-pyran-4-yl)amino)-3-((3-(4-(vinylsulfonamido)but-1-yn-1-yl)phenyl)amino)pyrazine-2-carboxamide]
10 to 100 | 10 to 100 | 100 to 500 | C#CC(=O)NCC#Cc1cccc(Nc2nc(NC3CCOCC3)c(CC)nc2C(N)=O)c1 [Compound 13, 6-Ethyl-3-((3-(3-propiolamidoprop-1-yn-1-yl)phenyl)amino)-5-((tetrahydro-2H-pyran-4-yl)amino)pyrazine-2-carboxamide]
10 to 100 | 10 to 100 | > 500 | CC#CC(=O)NCC#Cc1cccc(Nc2nc(NC3CCOCC3)c(CC)nc2C(N)=O)c1 [Compound 14, 3-((3-(3-(But-2-ynamido)prop-1-yn-1-yl)phenyl)amino)-6-ethyl-5-((tetrahydro-2H-pyran-4-yl)amino)pyrazine-2-carboxamide]
10 to 100 | 10 to 100 | > 500 | C#CC(=O)NCCC#Cc1cccc(Nc2nc(NC3CCOCC3)c(CC)nc2C(N)=O)c1 [Compound 15, 6-Ethyl-3-((3-(4-propiolamidobut-1-yn-1-yl)phenyl)amino)-5-((tetrahydro-2H-pyran-4-yl)amino)pyrazine-2-carboxamide]
< 1 | 1 to 10 | > 500 | C=CC(=O)N(C)[C@@H](C)C(=O)NCC#Cc1cccc(Nc2nc(NC3CCOCC3)c(CC)nc2C(N)=O)c1 [Compound 17, (S)-6-Ethyl-3-((3-(3-(2-(N-methylacrylamido)propanamido)prop-1-yn-1-yl)phenyl)amino)-5-((tetrahydro-2H-pyran-4-yl)amino)pyrazine-2-carboxamide]
< 1 | 1 to 10 | > 500 | CCc1nc(C(N)=O)c(Nc2cccc(C#CCNC(=O)[C@H](C)N(C)C(=O)/C=C/CN(C)C)c2)nc1NC1CCOCC1 [Compound 18, (S,E)-3-((3-(3-(2-(4-(Dimethylamino)-N-methylbut-2-enamido)propanamido)prop-1-yn-1-yl)phenyl)amino)-6-ethyl-5-((tetrahydro-2H-pyran-4-yl)amino)pyrazine-2-carboxamide]
> 500 | > 500 | > 500 | C=CS(=O)(=O)N(C)[C@@H](C)C(=O)NCC#Cc1cccc(Nc2nc(NC3CCOCC3)c(CC)nc2C(N)=O)c1 [Compound 19, (S)-6-Ethyl-3-((3-(3-(2-(N-methylvinylsulfonamido)propanamido)prop-1-yn-1-yl)phenyl)amino)-5-((tetrahydro-2H-pyran-4-yl)amino)pyrazine-2-carboxamide]
